Results: ChEMBL document CHEMBL3734705, “Synthesis and in vitro cytotoxicity of novel C-12 substituted-14-deoxy-andrographolide derivatives as potent anti-cancer agents” (2015)

Key:
Assay type in all cases: functional
[1] = system: SK-MEL-2; assay: Cytotoxicity against human SK-MEL-2 cells assessed as growth inhibition at 10 uM after 48 hrs by SRB assay; details: SK-MEL-2, 48 h, read-out: GI
[2] = system: SK-MEL-2; assay: Cytotoxicity against human SK-MEL-2 cells assessed as growth level at 10 uM after 48 hrs by SRB assay
[3] = Cytotoxicity against human LOXIMVI cells after 48 hrs by SRB assay; details: LOX IMVI
[4] = system: MDA-MB-231; assay: Cytotoxicity against human MDA-MB-231 cells after 48 hrs by SRB assay; details: MDA-MB-231, 48 h
[5] = system: NCI-H460; assay: Cytotoxicity against human NCI-H460 cells after 48 hrs by SRB assay; details: NCI-H460, 48 h
[6] = Cytotoxicity against human IGROV1 cells after 48 hrs by SRB assay; details: IGROV-1, 48 h
[7] = Cytotoxicity against human SW620 cells after 48 hrs by SRB assay; details: SW-620, 48 h
[8] = system: SR; assay: Cytotoxicity against human SR cells after 48 hrs by SRB assay
[9] = system: SK-MEL-2; assay: Cytotoxicity against human SK-MEL-2 cells after 48 hrs by SRB assay; details: SK-MEL-2, 48 h
[10] = Cytotoxicity against human COLO205 cells after 48 hrs by SRB assay; details: COLO 205, 48 h
[11] = system: EKVX; assay: Cytotoxicity against human EKVX cells after 48 hrs by SRB assay
[12] = system: MDA-MB-435; assay: Cytotoxicity against human MDA-MB-435 cells after 48 hrs by SRB assay; details: MDA-MB-435, 48 h
[13] = Cytotoxicity against human Caki1 cells after 48 hrs by SRB assay; details: CAKI-1, 48 h
[14] = system: MCF7; assay: Cytotoxicity against human MCF7 cells after 48 hrs by SRB assay; details: MCF7, 48 h
[15] = Cytotoxicity against human UO31 cells after 48 hrs by SRB assay; details: UO-31, 48 h
[16] = system: T47D; assay: Cytotoxicity against human T47D cells after 48 hrs by SRB assay
[17] = system: SK-MEL-28; assay: Cytotoxicity against human SK-MEL-28 cells after 48 hrs by SRB assay; details: SK-MEL-28, 48 h
[18] = Cytotoxicity against human OVCAR8 cells after 48 hrs by SRB assay; details: OVCAR-8, 48 h
[19] = Cytotoxicity against human SF268 cells after 48 hrs by SRB assay; details: SF-268, 48 h
[20] = Cytotoxicity against human NCI-ADR-RES cells after 48 hrs by SRB assay
[21] = Cytotoxicity against human SNB19 cells after 48 hrs by SRB assay; details: SNB-19, 48 h
[22] = system: KM12; assay: Cytotoxicity against human KM12 cells after 48 hrs by SRB assay; details: KM12, 48 h
[23] = system: NCI-H522; assay: Cytotoxicity against human NCI-H522 cells after 48 hrs by SRB assay; details: NCI-H522, 48 h
[24] = Cytotoxicity against human HCT15 cells after 48 hrs by SRB assay; details: HCT-15, 48 h
[25] = Cytotoxicity against human HL-60(TB) cells after 48 hrs by SRB assay; details: HL-60, 48 h
[26] = system: 786-0; assay: Cytotoxicity against human 786-0 cells after 48 hrs by SRB assay; details: 786-0, 48 h
[27] = system: HT-29; assay: Cytotoxicity against human HT-29 cells after 48 hrs by SRB assay; details: HT-29, 48 h
[28] = system: SN12C; assay: Cytotoxicity against human SN12C cells after 48 hrs by SRB assay
[29] = Cytotoxicity against human HOP92 cells after 48 hrs by SRB assay; details: HOP-92, 48 h
[30] = system: NCI-H23; assay: Cytotoxicity against human NCI-H23 cells after 48 hrs by SRB assay; details: NCI-H23, 48 h
[31] = Cytotoxicity against human HCT116 cells after 48 hrs by SRB assay; details: HCT-116, 48 h
[32] = system: NCI-H226; assay: Cytotoxicity against human NCI-H226 cells after 48 hrs by SRB assay; details: NCI-H226, 48 h
[33] = system: A498; assay: Cytotoxicity against human A498 cells after 48 hrs by SRB assay; details: A498, 48 h
[34] = system: MDA-MB-468; assay: Cytotoxicity against human MDA-MB-468 cells after 48 hrs by SRB assay; details: MDA-MB-468, 48 h
[35] = Cytotoxicity against human RPMI8226 cells after 48 hrs by SRB assay; details: RPMI-8226, 48 h
[36] = read-out: LC50 (the source's name)

For `C=C1CC[C@@H]2[C@](C)(COC(C)=O)[C@H](OC(C)=O)CC[C@@]2(C)[C@@H]1CC(NC1CCCC1)C1=CCOC1=O` (stereo not given in full), the inhibition of growth at 10 µM [1] was 14.9% and the Activity [2] was 85.11%.

Compound `C=C1CC[C@@H]2[C@](C)(COC(C)=O)[C@H](OC(C)=O)CC[C@@]2(C)[C@@H]1CC(Sc1ccccc1)C1=CCOC1=O` (mixture of isomers) has a GI50 [3] of 0.29 µM, an LC50 [3] of 3.97 µM and a TGI [3] of 1.19 µM. It also gave a GI50 [4] of 2.47 µM, an LC50 [4] of over 100 µM and a TGI [4] of 6.29 µM. The GI50 [5] was 2.24 µM, the TGI [5] was 6.03 µM and the CC50 [5, 36] was over 100 µM. It also gave a GI50 [6] of 1.87 µM, a TGI [6] of 4.28 µM and a GI50 [7] of 0.71 µM. The LC50 [7] was over 100 µM, the TGI [7] was 3.64 µM and the GI50 [8] was 0.55 µM. It also gave a TGI [8] of 3.66 µM, a CC50 [8, 36] of over 100 µM and a GI50 [9] of 2.25 µM. For the same compound, the LC50 (concentration causing 50% net cell kill) [9] was 9.36 µM, the TGI [9] was 4.59 µM and the GI50 [10] was 1.49 µM. For the same compound, the LC50 [10] was over 100 µM, the TGI [10] was 3.98 µM and the GI50 [11] was 2.43 µM. The LC50 [11] was over 100 µM, the TGI [11] was 10.4 µM and the GI50 [12] was 1.41 µM. It also gave an LC50 (50% lethal concentration) [12] of 9.09 µM, a TGI [12] of 3.58 µM and a GI50 [13] of 2.77 µM. It also gave an LC50 [13] of over 100 µM, a TGI [13] of 11.5 µM and a GI50 [14] of 0.53 µM. It also gave an LC50 (50% lethal concentration) [14] of 7.27 µM, a TGI [14] of 2.35 µM and a GI50 [15] of 1.2 µM. For the same compound, the LC50 (concentration killing 50% of cells) [15] was 5.33 µM, the TGI [15] was 2.53 µM and the GI50 [16] was 2.01 µM. It also gave an LC50 (concentration killing 50% of cells) [16] of over 100 µM, a TGI [16] of 8.32 µM and a GI50 [17] of 1.62 µM. The LC50 (lethal concentration 50%) [17] was 6.68 µM, the TGI [17] was 3.29 µM and the GI50 [18] was 1.46 µM. For the same compound, the LC50 [18] was 70 µM, the TGI [18] was 4.7 µM and the GI50 [19] was 1.71 µM. For the same compound, the LC50 [19] was 7.39 µM, the TGI [19] was 3.55 µM and the GI50 [20] was 2.1 µM. It also gave an LC50 [20] of over 100 µM, a TGI [20] of 11 µM and a GI50 [21] of 1.78 µM. It also gave an LC50 (concentration killing 50% of cells) [21] of 7.97 µM, a TGI [21] of 3.77 µM and a GI50 [22] of 1.4 µM. It also gave an LC50 [22] of 6.25 µM, a TGI [22] of 2.96 µM and a GI50 [23] of 1.35 µM. For the same compound, the LC50 [23] was 6.57 µM, the TGI [23] was 2.98 µM and the GI50 [24] was 0.87 µM. The LC50 [24] was 6.98 µM, the TGI [24] was 2.59 µM and the GI50 [25] was 0.49 µM. For the same compound, the TGI [25] was 2.27 µM, the CC50 [25, 36] was 9.76 µM and the GI50 [26] was 1.9 µM. It also gave an LC50 [26] of 6.96 µM, a TGI [26] of 3.64 µM and a GI50 [27] of 1.77 µM. It also gave an LC50 [27] of 8.03 µM, a TGI [27] of 3.77 µM and a GI50 [28] of 2.1 µM. The LC50 (concentration killing 50% of cells) [28] was over 100 µM, the TGI [28] was 7.07 µM and the GI50 [29] was 2.71 µM. The LC50 [29] was over 100 µM, the TGI [29] was 8.71 µM and the GI50 [30] was 1.78 µM. It also gave an LC50 [30] of 7.57 µM, a TGI [30] of 3.67 µM and a GI50 [31] of 0.85 µM. For the same compound, the LC50 (concentration killing 50% of cells) [31] was 5.03 µM, the TGI [31] was 2.18 µM and the GI50 [32] was 2.3 µM. The LC50 [32] was 39.4 µM, the TGI [32] was 5.98 µM and the GI50 [33] was 2.3 µM. For the same compound, the TGI [33] was 14 µM, the CC50 [33, 36] was 59.2 µM and the GI50 [34] was 1.41 µM. It also gave an LC50 [34] of 7.53 µM, a TGI [34] of 3.26 µM and an Activity [2] of -1.66%. It also gave a GI50 [35] of 0.34 µM, an LC50 [35] of over 100 µM and a TGI [35] of 2.73 µM.

With `C=C1CC[C@@H]2[C@](C)(COC(C)=O)[C@H](OC(C)=O)CC[C@@]2(C)[C@@H]1CC(NCc1ccc(F)cc1)C1=CCOC1=O` (mixture of isomers) the inhibition of growth at 10 µM [1] was 26.8% and the Activity [2] was 73.2%.

`C=C1CC[C@@H]2[C@](C)(COC(C)=O)[C@H](OC(C)=O)CC[C@@]2(C)[C@@H]1CC(NCc1cccc(Cl)c1)C1=CCOC1=O` (mixture of isomers) gave an inhibition of growth at 10 µM [1] of 32% and an Activity [2] of 68.04%.
